# According to US20250109140A1, “5-[5-(PIPERIDIN-4-YL)THIENO[3,2-C]PYRAZOL-2-YL]INDAZOLE DERIVATIVES AND RELATED COMPOUNDS AS MODULATORS FOR SPLICING NUCLEIC ACIDS AND FOR THE TREATMENT OF PROLIFERATIVE DISEASES” (REMIX THERAPUTICS INC., priority 2022, published 2025):
# Where two headings read alike, the source gives them in different places.
# Tests used:
# [1] = test system: Target C mRNA; assay: Splicing RT-qPCR gene panel, Target C canonical junction (CJ) mRNA; format: cell-based; details: Homo sapiens; Table 8; larger gene panel, decrease in CJ mRNA levels
# In short: (§1)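 A673/K562; 11-pt 3-fold dil., top 10 uM final, ≤0.25% DMSO; 24 h, 37 °C, 5% CO2. Lysis, then RT-qPCR of CJ/AJ isoforms, ≥duplicate. ΔCt vs housekeeper (GAPDH/GUSB/PPIA), ΔΔCt vs DMSO, RQ = 2^(−ΔΔCt), expressed as % response.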
# [2] = test system: HTT mRNA; assay: Splicing RT-qPCR assay, HTT canonical (CJ) and alternative (AJ) junction mRNA; format: cell-based; details: Homo sapiens; for EC50: AC50 = 50% response in AJ mRNA increase
# In short: as §1
# [3] = test system: HiBiT-tagged HTT protein; assay: HiBiT protein abundance assay, HTT (K562 HiBiT knock-in cells); format: cell-based, human; details: 24 hours treatment
# Experimental: (§2) Compounds described herein were used to screen for effects on quantitative protein abundance using a HiBit assay system (Promega). Quantitative protein abundance was determined by measuring the protein levels of HiBit-tagged protein targets expressed in cell culture via luminescence using the Nano-Glo HiBiT Lytic Detection System, which uses a split complementation assay format to reconstitute NanoBiT enzyme to generate a luminescent signal. A protein abundance assay was developed such that endogenous protein targets could be modified with the HiBiT peptide tag and their abundance could be assessed after compound treatment. Briefly, K562 cell lines containing a HiBiT-modification were treated with various compounds described herein (e.g., compounds of Formulas (I), or (II)). After treatment for 24 hours, the protein abundance of a specific target was determined by measuring luminescence.
# (§3) Cells were maintained in IMDM with 10% FBS. Before the assay, cells were diluted with […] growth media (IMDM+[…] media) and were seeded in a 384-well plate at a density of 10000 cells/well (for each cell line listed in Table 6). Each compound was prepared as a 10-point 3-fold serial dilution in DMSO with the top dose at a final concentration of […] in the well. Unmodified K562 cells were added at the previously specified density with DMSO to serve as an assay baseline and positive control (PC) and DMSO only with the respective modified cell lines was added to the negative control (NC) columns. Final DMSO concentration was kept at or below 0.25%. Treated cell plates were placed in an incubator at 37° C. with […] for 24 hours. After 24 hours, 25 μL of Complete HiflitLytic reagent was added to each well at room temperature (e.g. one plate requiring 10 mL Lytic Buffer, 100 μL LgBiT Protein, 200 μL Lytic Substrate), shaken for 5 minutes at 600 RPM, then left to sit for 10 minutes for signal to stabilize before reading on a Spark Cyto plate reader (Tecan) with a 500 ms measurement time.
# (§4) To determine compound effects on protein abundance of each target in Table 6, the percent response for each respective cell line was calculated at each compound concentration as follows:
# (§5) For the normalized response at each concentration, a four-parameter logistical regression was fit to the data and the response was interpolated at the 50% value to determine a concentration for protein abundance at 50% (IC50) the untreated control.
# [4] = test system: HiBiT-tagged MYB protein; assay: HiBiT protein abundance assay, MYB (K562 HiBiT knock-in cells); format: cell-based, human; details: 24 hours treatment
# Experimental: as §2, §3, §4, §5
# [5] = test system: SMN2 mRNA; assay: Splicing RT-qPCR gene panel, SMN2 canonical junction (CJ) mRNA; format: cell-based; details: Homo sapiens; Table 8; larger gene panel, decrease in CJ mRNA levels
# In short: as §1
# [6] = test system: K562 (human chronic myelogenous leukemia) cells; assay: Cell viability, Cell Titer Glo 2.0 assay, K562 cells; format: cell-based; details: 72 hours
# Experimental: Compounds described herein were screened for toxicity in K562 (human chronic myelogenous leukemia) and SH-SY5Y (human neuroblastoma) cells using a Cell Titer Glo 2.0 assay.
# Cells were plated at 500 cells/well (K562 cells) in 45 μL of IMDM supplemented with 10% FBS in a 384-well opaque plate. Wells containing only medium were used as a blank control. Test compounds (e.g., compounds of Formula (I), (III), (IV), (V), or (VI)) were first serially diluted in DMSO then diluted 1:100 with IMDM+10% FBS. The final concentration of DMSO was 0.1% in each well. The cells were incubated for 72 hours at 37° C. and 5% CO2 before assaying with Cell Titer Glo 2.0 reagent.
# [7] = test system: MYB mRNA; assay: Splicing RT-qPCR assay, MYB canonical (CJ) and alternative (AJ) junction mRNA; format: cell-based; details: Homo sapiens; for EC50: AC50 = 50% response in AJ mRNA increase
# In short: as §1
# [8] = test system: Target C; assay: HiBiT protein abundance assay, Target C (K562 HiBiT knock-in cells); format: cell-based, human; details: 24 hours treatment
# Experimental: • Promega Nano-Glo HiBiT Lytic Detection System (cat #N3030) • Corning 384-well TC-treated microplates (cat #3570) • Synthego Engineered Cells Knock-In Clones
# as §3, §4, §5
# [9] = Table 7, RT-qPCR, A673 or K562 cells, 24 hours treatment
# [10] = Table 7, IC50 = 50% response in CJ mRNA decrease, RT-qPCR, A673 or K562 cells, 24 hours treatment, read-out: HTT CJ
# [11] = Table 8, larger gene panel, decrease in CJ mRNA levels, read-out: HTT CJ IC50
# [12] = Table 7, IC50 = 50% response in CJ mRNA decrease, RT-qPCR, A673 or K562 cells, 24 hours treatment, read-out: MYB CJ
# [13] = Table 8, larger gene panel, decrease in CJ mRNA levels, read-out: MYB CJ IC50
SMILES,IC50 [1] [nM],"EC50 [2, 9] [nM]","IC50 [2, 10] [nM]","IC50 [2, 11] [nM]",IC50 [3] [nM],IC50 [4] [nM],IC50 [5] [nM],IC50 [6] [nM],"EC50 [7, 9] [nM]","IC50 [7, 12] [nM]","IC50 [7, 13] [nM]",IC50 [8] [nM]
Cc1cn2cc(-c3cc4cn(C5CCNCC5)nc4s3)cc(C)c2n1 [Compound 216],100 to 1000,< 100,< 100,< 100,< 100,100 to 1000,< 100,100 to 1000,100 to 1000,100 to 1000,100 to 1000,< 100
"CN(c1cc2nn(-c3ccc(-c4cn[nH]c4)cc3O)cc2s1)[C@@H]1C[C@H]2CC[C@@H](C1)N2 [Compound 148, 2-[5-[(1R,3R,5S)-8-azabicyclo[3.2.1]octan-3-yl(methyl)amino]thieno[3,2-c]pyrazol-2-yl]-5-(1H-pyrazol-4-yl)phenol]",> 10000,1000 to 10000,1000 to 10000,1000 to 10000,1000 to 10000,1000 to 10000,1000 to 10000,1000 to 10000,1000 to 10000,> 10000,1000 to 10000,1000 to 10000
Cn1cc2c(F)cc(-n3cc4sc(C5CCNCC5)cc4n3)cc2n1 [Compound 175],> 10000,> 10000,> 10000,> 10000,1000 to 10000,1000 to 10000,> 10000,1000 to 10000,> 10000,> 10000,> 10000,1000 to 10000
"Cc1cn2cc(-n3cc4sc(C5CCNCC5)cc4n3)cc(F)c2n1 [Compound 166, 4-(2-{8-fluoro-2-methylimidazo[1,2-a]pyridin-6-yl}thieno[3,2-c]pyrazol-5-yl)piperidine]",1000 to 10000,100 to 1000,100 to 1000,100 to 1000,100 to 1000,100 to 1000,100 to 1000,1000 to 10000,1000 to 10000,1000 to 10000,1000 to 10000,100 to 1000
Cc1cn2cc(-n3cc4cc(C5CCNCC5)sc4n3)ncc2n1 [Compound 158],100 to 1000,100 to 1000,100 to 1000,100 to 1000,100 to 1000,100 to 1000,100 to 1000,100 to 1000,100 to 1000,100 to 1000,100 to 1000,100 to 1000
Cn1cc2cc(-c3cc4cn([C@@H]5CCNC[C@H]5O)nc4s3)cc(F)c2n1 [Compound 273],> 10000,1000 to 10000,> 10000,> 10000,1000 to 10000,> 10000,100 to 1000,1000 to 10000,1000 to 10000,> 10000,> 10000,> 10000
Cn1cc2cc(-c3cc4cn([C@H]5CCNC[C@H]5F)nc4s3)cc(F)c2n1 [Compound 182],100 to 1000,100 to 1000,< 100,100 to 1000,< 100,100 to 1000,< 100,100 to 1000,1000 to 10000,100 to 1000,1000 to 10000,100 to 1000

# Now from value to compound:
IC50 [1] [nM],"EC50 [2, 9] [nM]","IC50 [2, 10] [nM]","IC50 [2, 11] [nM]",IC50 [3] [nM],IC50 [4] [nM],IC50 [5] [nM],IC50 [6] [nM],"EC50 [7, 9] [nM]","IC50 [7, 12] [nM]","IC50 [7, 13] [nM]",IC50 [8] [nM],SMILES
100 to 1000,< 100,< 100,< 100,< 100,100 to 1000,< 100,100 to 1000,100 to 1000,100 to 1000,100 to 1000,< 100,Cc1cn2cc(-c3cc4cn(C5CCNCC5)nc4s3)cc(Cl)c2n1 [Compound 226]
100 to 1000,100 to 1000,100 to 1000,< 100,100 to 1000,1000 to 10000,< 100,1000 to 10000,1000 to 10000,1000 to 10000,100 to 1000,1000 to 10000,Cn1cc2cc(-c3nc4cn(C5CCNCC5)nc4s3)c(O)cc2n1 [Compound 1110]
> 10000,> 10000,> 10000,> 10000,100 to 1000,100 to 1000,> 10000,1000 to 10000,> 10000,> 10000,> 10000,100 to 1000,Cc1c(O)c(-c2cc3cn(C4CCNCC4)nc3s2)cc2cn(C)nc12 [Compound 221]
100 to 1000,100 to 1000,< 100,100 to 1000,< 100,100 to 1000,< 100,100 to 1000,100 to 1000,100 to 1000,100 to 1000,100 to 1000,COc1c(-c2cc3cn(C4CCNCC4)nc3s2)cc2cn(C)nc2c1F [Compound 218]
> 10000,1000 to 10000,1000 to 10000,1000 to 10000,1000 to 10000,1000 to 10000,1000 to 10000,> 10000,1000 to 10000,> 10000,> 10000,1000 to 10000,Cn1cc2cc(-n3cc4nc(C5CCNCC5)sc4n3)cc(F)c2n1 [Compound 1109]
1000 to 10000,1000 to 10000,100 to 1000,1000 to 10000,< 100,100 to 1000,100 to 1000,100 to 1000,1000 to 10000,1000 to 10000,1000 to 10000,< 100,Cn1cc2cc(-c3cc4cn([C@@H]5CCNC[C@@H]5F)nc4s3)cc(F)c2n1 [Compound 183]
1000 to 10000,1000 to 10000,1000 to 10000,1000 to 10000,1000 to 10000,1000 to 10000,1000 to 10000,1000 to 10000,1000 to 10000,1000 to 10000,1000 to 10000,1000 to 10000,Cn1cc2cc(-n3cc4sc(C5CCNCC5)cc4n3)c(O)cc2n1 [Compound 178]
1000 to 10000,1000 to 10000,1000 to 10000,1000 to 10000,100 to 1000,1000 to 10000,< 100,1000 to 10000,1000 to 10000,1000 to 10000,1000 to 10000,1000 to 10000,Cc1cn2nc(-c3cc4cn(C5CCNCC5)nc4s3)cc2c(C)n1 [Compound 222]
100 to 1000,100 to 1000,100 to 1000,100 to 1000,< 100,100 to 1000,< 100,100 to 1000,100 to 1000,100 to 1000,100 to 1000,100 to 1000,"CN1CCC(n2cc3cc(-c4cc(F)c5nn(C)cc5c4)sc3n2)CC1 [Compound 150, 7-fluoro-2-methyl-5-[2-(1-methylpiperidin-4-yl)thieno[2,3-c]pyrazol-5-yl]indazole]"
